In patent US20230348442A1, “GALECTIN-3 INHIBITING 2-HYDROXYCYCLOALKANE-1-CARBAMOYL DERIVATIVES” (Idorsia Pharmaceuticals Ltd, priority 2020, published 2023):

Target: human Gal-3 (hGal-3) (Homo sapiens (Human), UniProt P17931)
Assay: competitive binding assay: binding of biotinylated hGal-3 to microplate-adsorbed asialofetuin (ASF), spectrophotometric
Conditions: Activity on hGal-3; mean values of several measurements
Procedure, shortened: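 Compounds in DMSO dilution series competed with 300-1000 ng/mL biotinylated hGal-3 for asialofetuin adsorbed on the plate (3 h, 4° C). Streptavidin-peroxidase at 80 ng/mL (1 h, 4° C) with ABTS gave a spectrophotometric read-out, and IC50 was reported as the mean of repeat runs.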

Sequence of human Gal-3 (hGal-3) (P17931 whole entry): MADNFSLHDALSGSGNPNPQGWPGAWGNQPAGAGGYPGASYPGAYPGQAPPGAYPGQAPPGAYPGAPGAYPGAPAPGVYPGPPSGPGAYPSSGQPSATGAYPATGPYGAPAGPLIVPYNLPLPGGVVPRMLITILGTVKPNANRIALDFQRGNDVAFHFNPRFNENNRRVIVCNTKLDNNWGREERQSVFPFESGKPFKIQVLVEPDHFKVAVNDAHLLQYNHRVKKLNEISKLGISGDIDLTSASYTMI

IC50	SMILES
108 nM	CO[C@@H]1[C@@H](n2cc(-c3cc(F)c(F)c(F)c3)nn2)[C@@H](O)[C@@H](CO)O[C@H]1C(=O)N(c1cccc(Br)c1)[C@H]1CC[C@@H]1O [Example 2.1.10, (2R,3R,4S,5R,6R)-N-(3-bromophenyl)-5-hydroxy-N-((1S,2S)-2-hydroxycyclobutyl)-6-(hydroxymethyl)-3-methoxy-4-(4-(3,4,5-trifluorophenyl)-1H-1,2,3-triazol-1-yl)tetrahydro-2H-pyran-2-carboxamide]
203 nM	CO[C@@H]1[C@@H](n2cc(-c3cc(F)c(F)c(F)c3)nn2)[C@@H](O)[C@@H](CO)O[C@H]1C(=O)N(c1cccc(Br)c1)[C@@H]1CC[C@H]1O [Example 2.1.10R, (2R,3R,4S,5R,6R)-N-(3-bromophenyl)-5-hydroxy-N-((1R,2R)-2-hydroxycyclobutyl)-6-(hydroxymethyl)-3-methoxy-4-(4-(3,4,5-trifluorophenyl)-1H-1,2,3-triazol-1-yl)tetrahydro-2H-pyran-2-carboxamide]
72.5 nM	CO[C@@H]1[C@@H](n2cc(-c3cc(F)c(F)c(F)c3)nn2)[C@@H](O)[C@@H](CO)O[C@H]1C(=O)N(c1cc(Br)cc(Br)c1)[C@H]1CC[C@@H]1O [Example 2.1.11, (2R,3R,4S,5R,6R)-N-(3,5-dibromophenyl)-5-hydroxy-N-((1S,2S)-2-hydroxycyclobutyl)-6-(hydroxymethyl)-3-methoxy-4-(4-(3,4,5-trifluorophenyl)-1H-1,2,3-triazol-1-yl)tetrahydro-2H-pyran-2-carboxamide]
334 nM	CO[C@@H]1[C@@H](n2cc(-c3cc(F)c(F)c(F)c3)nn2)[C@@H](O)[C@@H](CO)O[C@H]1C(=O)N(c1cc(Br)cc(Br)c1)[C@@H]1CC[C@H]1O [Example 2.1.11R, (2R,3R,4S,5R,6R)-N-(3,5-dibromophenyl)-5-hydroxy-N-((1R,2R)-2-hydroxycyclobutyl)-6-(hydroxymethyl)-3-methoxy-4-(4-(3,4,5-trifluorophenyl)-1H-1,2,3-triazol-1-yl)tetrahydro-2H-pyran-2-carboxamide]
220 nM	CO[C@@H]1[C@@H](n2cc(-c3cc(F)c(F)c(F)c3)nn2)[C@@H](O)[C@@H](CO)O[C@H]1C(=O)N(c1cc(C)cc(Br)c1)[C@@H]1CC[C@H]1O [Example 2.1.12R, (2R,3R,4S,5R,6R)-N-(3-bromo-5-methylphenyl)-5-hydroxy-N-((1R,2R)-2-hydroxycyclobutyl)-6-(hydroxymethyl)-3-methoxy-4-(4-(3,4,5-trifluorophenyl)-1H-1,2,3-triazol-1-yl)tetrahydro-2H-pyran-2-carboxamide]
67.8 nM	COc1cc(-c2cn([C@H]3[C@@H](O)[C@@H](CO)O[C@@H](C(=O)N(c4cc(Cl)cc(Cl)c4)[C@H]4CC[C@@H]4O)[C@@H]3OC)nn2)cc(F)c1F [Example 2.3.2, (2R,3R,4S,5R,6R)-N-(3,5-dichlorophenyl)-4-(4-(3,4-difluoro-5-methoxyphenyl)-1H-1,2,3-triazol-1-yl)-5-hydroxy-N-((1S,2S)-2-hydroxycyclobutyl)-6-(hydroxymethyl)-3-methoxytetrahydro-2H-pyran-2-carboxamide]
190 nM	COc1cc(-c2cn([C@H]3[C@@H](O)[C@@H](CO)O[C@@H](C(=O)N(c4cc(Cl)cc(Cl)c4)[C@@H]4CC[C@H]4O)[C@@H]3OC)nn2)cc(F)c1F [Example 2.3.2R, (2R,3R,4S,5R,6R)-N-(3,5-dichlorophenyl)-4-(4-(3,4-difluoro-5-methoxyphenyl)-1H-1,2,3-triazol-1-yl)-5-hydroxy-N-((1R,2R)-2-hydroxycyclobutyl)-6-(hydroxymethyl)-3-methoxytetrahydro-2H-pyran-2-carboxamide]
113 nM	COc1cc(-c2cn([C@H]3[C@@H](O)[C@@H](CO)O[C@@H](C(=O)N(c4cc(Br)cc(Br)c4)[C@H]4CC[C@@H]4O)[C@@H]3OC)nn2)cc(F)c1F [Example 2.3.11, (2R,3R,4S,5R,6R)-N-(3,5-dibromophenyl)-4-(4-(3,4-difluoro-5-methoxyphenyl)-1H-1,2,3-triazol-1-yl)-5-hydroxy-N-((1S,2S)-2-hydroxycyclobutyl)-6-(hydroxymethyl)-3-methoxytetrahydro-2H-pyran-2-carboxamide]
258 nM	COc1cc(-c2cn([C@H]3[C@@H](O)[C@@H](CO)O[C@@H](C(=O)N(c4cc(Br)cc(Br)c4)[C@@H]4CC[C@H]4O)[C@@H]3OC)nn2)cc(F)c1F [Example 2.3.11R, (2R,3R,4S,5R,6R)-N-(3,5-dibromophenyl)-4-(4-(3,4-difluoro-5-methoxyphenyl)-1H-1,2,3-triazol-1-yl)-5-hydroxy-N-((1R,2R)-2-hydroxycyclobutyl)-6-(hydroxymethyl)-3-methoxytetrahydro-2H-pyran-2-carboxamide]
116 nM	COc1cc(-c2cn([C@H]3[C@@H](O)[C@@H](CO)O[C@@H](C(=O)N(c4cc(C)cc(Br)c4)[C@H]4CC[C@@H]4O)[C@@H]3OC)nn2)cc(F)c1F [Example 2.3.12, (2R,3R,4S,5R,6R)-N-(3-bromo-5-methylphenyl)-4-(4-(3,4-difluoro-5-methoxyphenyl)-1H-1,2,3-triazol-1-yl)-5-hydroxy-N-((1S,2S)-2-hydroxycyclobutyl)-6-(hydroxymethyl)-3-methoxytetrahydro-2H-pyran-2-carboxamide]
311 nM	COc1cc(-c2cn([C@H]3[C@@H](O)[C@@H](CO)O[C@@H](C(=O)N(c4cc(C)cc(Br)c4)[C@@H]4CC[C@H]4O)[C@@H]3OC)nn2)cc(F)c1F [Example 2.3.12R, (2R,3R,4S,5R,6R)-N-(3-bromo-5-methylphenyl)-4-(4-(3,4-difluoro-5-methoxyphenyl)-1H-1,2,3-triazol-1-yl)-5-hydroxy-N-((1R,2R)-2-hydroxycyclobutyl)-6-(hydroxymethyl)-3-methoxytetrahydro-2H-pyran-2-carboxamide]
38 nM	CO[C@@H]1[C@@H](n2cc(-c3cc(F)c(C)c(F)c3)nn2)[C@@H](O)[C@@H](CO)O[C@H]1C(=O)N(c1cc(Cl)cc(Cl)c1)[C@H]1CC[C@@H]1O [Example 2.4.2, (2R,3R,4S,5R,6R)-N-(3,5-dichlorophenyl)-4-(4-(3,5-difluoro-4-methylphenyl)-1H-1,2,3-triazol-1-yl)-5-hydroxy-N-((1S,2S)-2-hydroxycyclobutyl)-6-(hydroxymethyl)-3-methoxytetrahydro-2H-pyran-2-carboxamide]
134 nM	CO[C@@H]1[C@@H](n2cc(-c3cc(F)c(C)c(F)c3)nn2)[C@@H](O)[C@@H](CO)O[C@H]1C(=O)N(c1cc(Cl)cc(Cl)c1)[C@@H]1CC[C@H]1O [Example 2.4.2R, (2R,3R,4S,5R,6R)-N-(3,5-dichlorophenyl)-4-(4-(3,5-difluoro-4-methylphenyl)-1H-1,2,3-triazol-1-yl)-5-hydroxy-N-((1R,2R)-2-hydroxycyclobutyl)-6-(hydroxymethyl)-3-methoxytetrahydro-2H-pyran-2-carboxamide]
71.4 nM	CO[C@@H]1[C@@H](n2cc(-c3cc(F)c(Cl)c(F)c3)nn2)[C@@H](O)[C@@H](CO)O[C@H]1C(=O)N(c1cc(Cl)cc(C#N)c1)[C@H]1CC[C@@H]1O [Example 2.5.4, (2R,3R,4S,5R,6R)-4-(4-(4-chloro-3,5-difluorophenyl)-1H-1,2,3-triazol-1-yl)-N-(3-chloro-5-cyanophenyl)-5-hydroxy-N-((1S,2S)-2-hydroxycyclobutyl)-6-(hydroxymethyl)-3-methoxytetrahydro-2H-pyran-2-carboxamide]
193 nM	CO[C@@H]1[C@@H](n2cc(-c3cc(F)c(Cl)c(F)c3)nn2)[C@@H](O)[C@@H](CO)O[C@H]1C(=O)N(c1cc(Cl)cc(C#N)c1)[C@@H]1CC[C@H]1O [Example 2.5.4R, (2R,3R,4S,5R,6R)-4-(4-(4-chloro-3,5-difluorophenyl)-1H-1,2,3-triazol-1-yl)-N-(3-chloro-5-cyanophenyl)-5-hydroxy-N-((1R,2R)-2-hydroxycyclobutyl)-6-(hydroxymethyl)-3-methoxytetrahydro-2H-pyran-2-carboxamide]
47 nM	CO[C@@H]1[C@@H](n2cc(-c3cc(F)c(Cl)c(F)c3)nn2)[C@@H](O)[C@@H](CO)O[C@H]1C(=O)N(c1cc(Br)cc(C#N)c1)[C@H]1CC[C@@H]1O [Example 2.5.5, (2R,3R,4S,5R,6R)-N-(3-bromo-5-cyanophenyl)-4-(4-(4-chloro-3,5-difluorophenyl)-1H-1,2,3-triazol-1-yl)-5-hydroxy-N-((1S,2S)-2-hydroxycyclobutyl)-6-(hydroxymethyl)-3-methoxytetrahydro-2H-pyran-2-carboxamide]
184 nM	CO[C@@H]1[C@@H](n2cc(-c3cc(F)c(Cl)c(F)c3)nn2)[C@@H](O)[C@@H](CO)O[C@H]1C(=O)N(c1cc(Br)cc(C#N)c1)[C@@H]1CC[C@H]1O [Example 2.5.5R, (2R,3R,4S,5R,6R)-N-(3-bromo-5-cyanophenyl)-4-(4-(4-chloro-3,5-difluorophenyl)-1H-1,2,3-triazol-1-yl)-5-hydroxy-N-((1R,2R)-2-hydroxycyclobutyl)-6-(hydroxymethyl)-3-methoxytetrahydro-2H-pyran-2-carboxamide]
80 nM	CO[C@@H]1[C@@H](n2cc(-c3cc(F)c(Br)c(F)c3)nn2)[C@@H](O)[C@@H](CO)O[C@H]1C(=O)N(c1cc(Cl)cc(C#N)c1)[C@H]1CC[C@@H]1O [Example 2.6.4, (2R,3R,4S,5R,6R)-4-(4-(4-bromo-3,5-difluorophenyl)-1H-1,2,3-triazol-1-yl)-N-(3-chloro-5-cyanophenyl)-5-hydroxy-N-((1S,2S)-2-hydroxycyclobutyl)-6-(hydroxymethyl)-3-methoxytetrahydro-2H-pyran-2-carboxamide]
174 nM	CO[C@@H]1[C@@H](n2cc(-c3cc(F)c(Br)c(F)c3)nn2)[C@@H](O)[C@@H](CO)O[C@H]1C(=O)N(c1cc(Cl)cc(C#N)c1)[C@@H]1CC[C@H]1O [Example 2.6.4R, (2R,3R,4S,5R,6R)-4-(4-(4-bromo-3,5-difluorophenyl)-1H-1,2,3-triazol-1-yl)-N-(3-chloro-5-cyanophenyl)-5-hydroxy-N-((1R,2R)-2-hydroxycyclobutyl)-6-(hydroxymethyl)-3-methoxytetrahydro-2H-pyran-2-carboxamide]
